Measurements taken from US8236794B2, “Treatment of mesothelioma” (Ed. Geistlich Soehne AG fuer Chemische Industrie, priority 2003, dated 2012).
Entries after “also recorded” stand apart in the source; their conditions may differ.

Columns and labels:
[1] = cited from earlier work
[2] = system: human malignant glioma cell line LN-229; test: Cell viability and Fas-ligand mediated apoptosis in glioma cells; format: cell-based; details: LN-229 cells; for Effect on destruction of cells by Fas-ligand: combined with Fas-ligand
Description: The present invention relates to the ability of methylol transfer agents, such as taurolidine, to induce cell toxicity, and to enhance Fas-ligand mediated apoptosis. Both taurolidine and its congener taurultam enhance the apoptotic effect of Fas-ligand in cancer cells at drug concentrations which per se show practically no effect on cell viability. For example, in the human malignant glioma cell line LN-229 cell viability was reduced directly following incubation with taurolidine or taurultam alone. […] Thus, the use of methylol transfer agents to induce apoptotic cell death provides a means for treating mesothelioma as in the present invention.

[3] = system: malignant mesothelioma; test: Therapy of mesothelioma with taurolidine: single-patient case, two treatment cycles, intravenous plus intrapleural; format: in vivo, human
Source text: The following is a case involving treatment of an individual for two treatment cycles. Patient: Diagnosis: Malignant mesothelioma two yrs. ago (stage III according to IMIG stadiation) Prior treatments: Treated with CT with Cis-Platinum/Gemcitabine, Local recurrency with pleural effusion. Treated with taurolidine 2%, Two cycles of three weeks with taurolidine both intravenous and intrapleural administration I.V: 4 bottles daily for 5 days for three weeks (2 cycles) I.P: 1 bottle daily for 5 days for three weeks (2 cycles)

| Compound | Water solubility [1] | Effect on destruction of cells by Fas-ligand [2] | Cell viability following incubation with compound alone [2] | Main side effects, I.P. (intrapleural) administration ([3]; I.P. 1 bottle taurolidine 2% daily for 5 days for three weeks (2 cycles)) | Main side effects, I.V. administration ([3]; I.V. 4 bottles taurolidine 2% daily for 5 days for three weeks (2 cycles)) | Side effects obliging discontinuance of the treatment ([3]; I.V. and I.P. administration, 2 cycles) | Clinical response ([3]; same patient and regimen, preliminary response evaluation) | Patient's condition after treatment ([3]; two treatment cycles, I.V. and I.P.) |
| --- | --- | --- | --- | --- | --- | --- | --- | --- |
| O=S1(=O)CCN(CN2CCS(=O)(=O)NC2)CN1 [taurolidine, Bis-(1,1-dioxoperhydro-1,2,4-thiadiazinyl-4)methane] | up to 2% | enhanced the destruction of LN-229 cells by Fas-ligand | reduced | Local burning at the site of instillation; also recorded: Thoracic burning of significant grade | Mild local burning at the site of instillation; also recorded: Transient symptomatic hypthension | None | Highly significant reduction of the dyspnea | marked improvement |
| O=S1(=O)CCNCN1 [taurultam] | – | enhanced the destruction of LN-229 cells by Fas-ligand | reduced | – | – | – | – | – |
